In patent publication US20240239781A1, “1H-PYRAZOLE DERIVATIVES AS SIGMA LIGANDS” (ACONDICIONAMIENTO TARRASENSE, priority 2021, published 2024):

How the values were obtained:
human σ1 receptor = target: T1, human σ1 receptor (Homo sapiens, UniProt Q99720); test: Human σ1 receptor radioligand assay ([3H](+)-pentazocine, transfected HEK-293 membranes); conditions: class scale, read-out: Binding σ-1 Ki
T1 construct: expressed in transfected cells; host or cells: HEK-293
Description: Transfected HEK-293 membranes (7 μg) were incubated with 5 nM of [^3H](+)-pentazocine in assay buffer containing Tris-HCl 50 mM at pH 8. NBS (non-specific binding) was measured by adding 10 μM haloperidol. The binding of the test compound was measured at either one concentration (% inhibition at 1 or 10 μM) or five different concentrations to determine affinity values (Ki). Plates were incubated at 37° C. for 120 minutes. After the incubation period, the reaction mix was then transferred to MultiScreen HTS, FC plates (Millipore), filtered and plates were washed 3 times with ice-cold 10 mM Tris-HCL (pH7.4). Filters were dried and counted at approximately 40% efficiency in a MicroBeta scintillation counter (Perkin-Elmer) using EcoScint liquid scintillation cocktail.

human σ2/TMEM97 receptor = target: T2, human σ2/TMEM97 receptor (Homo sapiens, UniProt Q5BJF2); test: Binding assay to human σ2/TMEM97 receptor ([3H]-DTG, transfected HEK-293 membranes); conditions: class scale, read-out: Binding σ-2 Ki
T2 construct: expressed in transfected cells; host or cells: HEK-293
T2 sequence (Q5BJF2 whole entry): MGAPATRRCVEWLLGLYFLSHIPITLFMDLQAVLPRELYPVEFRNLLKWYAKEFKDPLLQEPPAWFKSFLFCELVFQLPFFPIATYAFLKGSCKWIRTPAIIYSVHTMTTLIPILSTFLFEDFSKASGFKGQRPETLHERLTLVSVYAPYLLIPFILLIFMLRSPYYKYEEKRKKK
Description: Transfected HEK-293 membranes (15 μg) were incubated with 10 nM [^3H]-1,3-Di-o-tolylguanidine (DTG) in assay buffer containing Tris-HCl 50 mM at pH 8.0. NSB (non-specific binding) was measured by adding 10 μM haloperidol. The binding of the test compound was measured at either one concentration (% inhibition at 1 or 10 μM) or five different concentrations to determine affinity values (Ki). Plates were incubated at 25° C. for 120 minutes. After the incubation period, the reaction mix was transferred to MultiScreen HTS, FC plates (Millipore), filtered and washed 3 times with ice-cold 10 mM Tris-HCL (pH 8.0). Filters were dried and counted at approximately 40% efficiency in a MicroBeta scintillation counter (Perkin-Elmer) using EcoScint liquid scintillation cocktail.

T1 sequence (Q99720 whole entry): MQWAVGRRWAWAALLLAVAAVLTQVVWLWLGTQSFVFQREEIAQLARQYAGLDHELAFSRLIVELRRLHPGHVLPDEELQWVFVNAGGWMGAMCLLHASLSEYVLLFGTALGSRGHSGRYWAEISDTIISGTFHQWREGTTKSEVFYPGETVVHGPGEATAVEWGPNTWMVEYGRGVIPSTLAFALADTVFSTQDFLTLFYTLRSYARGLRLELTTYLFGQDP

Compound | Ki (human σ1 receptor) [nM] | Ki (human σ2/TMEM97 receptor) [nM]
Cc1cc(-c2nn(C)c(Cl)c2C(=O)N2CCC[C@@H](NCCC(C)C)C2)no1 [Example 108, (R)-(5-Chloro-1-methyl-3-(5-methylisoxazol-3-yl)-1H-pyrazol-4-yl)(3-(isopentylamino)piperidin-1-yl)methanone] | 100 to 500 | > 1000
Cc1cc(-c2nn(C)c(Cl)c2CN2CCCC(NCCC(C)C)CC2)no1 (centres unmarked) [Example 24, 1-((5-Chloro-1-methyl-3-(5-methylisoxazol-3-yl)-1H-pyrazol-4-yl)methyl)-N-isopentylazepan-4-amine] | > 1000 | < 100
CCn1nc(-c2ccon2)c(C(=O)NC2CCN(CCC(C)(C)C)CC2)c1Cl [Example 163, 5-Chloro-N-(1-(3,3-dimethylbutyl)piperidin-4-yl)-1-ethyl-3-(isoxazol-3-yl)-1H-pyrazole-4-carboxamide] | 100 to 500 | < 100
CCn1nc(-c2cccc(C(F)(F)F)n2)c(CC(=O)NC2CCN(CCC(C)(C)C)CC2)c1Cl [Example 223, 2-(5-chloro-1-ethyl-3-(6-(trifluoromethyl)pyridin-2-yl)-1H-pyrazol-4-yl)-N-(1-(3,3-dimethylbutyl)piperidin-4-yl)acetamide] | < 100 | < 100
CC(C)CCN[C@H]1CCCCN(Cc2c(-c3noc4c3COCC4)nn(C)c2Cl)C1 [Example 40, (S)-1-((5-Chloro-3-(6,7-dihydro-4H-pyrano[3,4-d]isoxazol-3-yl)-1-methyl-1H-pyrazol-4-yl)methyl)-N-isopentylazepan-3-amine] | 100 to 500 | 100 to 500
Cc1cc(-c2nn(C)c(Cl)c2CN2CCCC(CNCCc3ccccc3)C2)no1 (centres unmarked) [Example 57, N-((1-((5-Chloro-1-methyl-3-(5-methylisoxazol-3-yl)-1H-pyrazol-4-yl)methyl)piperidin-3-yl)methyl)-2-phenylethanamine] | 500 to 1000 | 100 to 500
Cc1cc(-c2nn(C)c(Cl)c2C(=O)N2CCCC3(CCN(Cc4ccccc4)CC3)C2)no1 [Example 156, (9-Benzyl-2,9-diazaspiro[5.5]undecan-2-yl)(5-chloro-1-methyl-3-(5-methylisoxazol-3-yl)-1H-pyrazol-4-yl)methanone] | 100 to 500 | < 100
Cc1cc(-c2nn(C)c(Cl)c2C(=O)N2CCC3(CCN(CC(C)C)CC3)CC2)no1 [Example 89, (5-Chloro-1-methyl-3-(5-methylisoxazol-3-yl)-1H-pyrazol-4-yl)(9-isobutyl-3,9-diazaspiro[5.5]undecan-3-yl)methanone] | > 1000 | > 1000
Cc1cccc(-c2nn(C)c(Cl)c2C(=O)NC2CCN(CCC(C)(C)C)CC2)n1 [Example 168, 5-Chloro-N-(1-(3,3-dimethylbutyl)piperidin-4-yl)-1-methyl-3-(6-methylpyridin-2-yl)-1H-pyrazole-4-carboxamide] | 100 to 500 | < 100
Cc1cc(-c2nn(C)c(Cl)c2C(=O)NC2CCC3(CC2)CCN(CCC(C)(C)C)CC3)no1 [Example 107, 5-Chloro-N-(3-(3,3-dimethylbutyl)-3-azaspiro[5.5]undecan-9-yl)-1-methyl-3-(5-methylisoxazol-3-yl)-1H-pyrazole-4-carboxamide] | 100 to 500 | < 100
CCn1nc(-c2cc(C)on2)c(C(=O)N2CC3(CCN(CCC(C)(C)C)CC3)C2)c1Cl [Example 184, (5-Chloro-1-ethyl-3-(5-methylisoxazol-3-yl)-1H-pyrazol-4-yl)(7-(3,3-dimethylbutyl)-2,7-diazaspiro[3.5]nonan-2-yl)methanone] | 100 to 500 | < 100
Cc1cc(-c2nn(C)c(Cl)c2CN2CCCC(CNCc3ccccc3)C2)no1 (centres unmarked) [Example 55, N-Benzyl-1-(1-((5-chloro-1-methyl-3-(5-methylisoxazol-3-yl)-1H-pyrazol-4-yl)methyl)piperidin-3-yl)methanamine] | > 1000 | 100 to 500
Cc1cc(-c2nn(C)c(Cl)c2C(=O)NC2CCN(CCC(C)(C)C)CC2)no1 [Example 166, 5-Chloro-N-(1-(3,3-dimethylbutyl)piperidin-4-yl)-1-methyl-3-(5-methylisoxazol-3-yl)-1H-pyrazole-4-carboxamide] | 100 to 500 | < 100
Cc1cc(-c2nn(C)c(Cl)c2CN2CCC3(CC2)CCN(CC(C)(C)C)CC3)no1 [Example 68, 3-(5-Chloro-1-methyl-4-((9-neopentyl-3,9-diazaspiro[5.5]undecan-3-yl)methyl)-1H-pyrazol-3-yl)-5-methylisoxazole] | 100 to 500 | < 100
Cc1cc(-c2nn(C)c(Cl)c2C(=O)N2CCCC(CNCC(C)C)C2)no1 (centres unmarked) [Example 95, (5-Chloro-1-methyl-3-(5-methylisoxazol-3-yl)-1H-pyrazol-4-yl)(3-((isobutylamino)methyl)piperidin-1-yl)methanone] | > 1000 | > 1000
Cc1cc(-c2nn(C)c(Cl)c2CN2CCCCC(NCCc3ccccc3)C2)no1 (centres unmarked) [Example 3, 1-((5-Chloro-1-methyl-3-(5-methylisoxazol-3-yl)-1H-pyrazol-4-yl)methyl)-N-phenethylazepan-3-amine] | 500 to 1000 | > 1000
CCn1nc(-c2cc(C)on2)c(C(=O)NCC2CCN(CCC(C)(C)C)CC2)c1Cl [Example 203, 5-Chloro-N-((1-(3,3-dimethylbutyl)piperidin-4-yl)methyl)-1-ethyl-3-(5-methylisoxazol-3-yl)-1H-pyrazole-4-carboxamide] | 100 to 500 | < 100
Cn1nc(-c2ccccn2)c(C(=O)N2CCC3(CCN(CCC(C)(C)C)CC3)CC2)c1Cl [Example 173, (5-Chloro-1-methyl-3-(pyridin-2-yl)-1H-pyrazol-4-yl)(9-(3,3-dimethylbutyl)-3,9-diazaspiro[5.5]undecan-3-yl)methanone] | 500 to 1000 | < 100
Cc1cccc(-c2nn(C)c(Cl)c2C(=O)NC2CCC3(CC2)CCN(CCC(C)(C)C)CC3)n1 [Example 148, 5-Chloro-N-(3-(3,3-dimethylbutyl)-3-azaspiro[5.5]undecan-9-yl)-1-methyl-3-(6-methylpyridin-2-yl)-1H-pyrazole-4-carboxamide] | < 100 | < 100
CCn1nc(-c2cc(C(C)C)on2)c(C(=O)N2CCC3(CCN(CCC(C)(C)C)CC3)CC2)c1Cl [Example 192, (5-Chloro-1-ethyl-3-(5-isopropylisoxazol-3-yl)-1H-pyrazol-4-yl)(9-(3,3-dimethylbutyl)-3,9-diazaspiro[5.5]undecan-3-yl)methanone] | 100 to 500 | < 100
Cc1cc(-c2nn(C)c(Cl)c2CN2CCC(NCCC(C)C)C2)no1 (centres unmarked) [Example 11, 1-((5-Chloro-1-methyl-3-(5-methylisoxazol-3-yl)-1H-pyrazol-4-yl)methyl)-N-isopentylpyrrolidin-3-amine] | 500 to 1000 | 100 to 500
CCn1nc(-c2ccon2)c(C(=O)NC2CCC3(CC2)CN(CCC(C)(C)C)C3)c1Cl [Example 197, 5-Chloro-N-(2-(3,3-dimethylbutyl)-2-azaspiro[3.5]nonan-7-yl)-1-ethyl-3-(isoxazol-3-yl)-1H-pyrazole-4-carboxamide] | 100 to 500 | < 100
CCn1nc(-c2cc(C)on2)c(C(=O)N2CCCC3(CCN(CCC(C)(C)C)CC3)C2)c1Cl [Example 150, (5-Chloro-1-ethyl-3-(5-methylisoxazol-3-yl)-1H-pyrazol-4-yl)(9-(3,3-dimethylbutyl)-2,9-diazaspiro[5.5]undecan-2-yl)methanone] | 100 to 500 | < 100
Cc1cc(-c2nn(C)c(Cl)c2CN2CCCC(CNCCC(C)C)C2)no1 (centres unmarked) [Example 58, N-((1-((5-Chloro-1-methyl-3-(5-methylisoxazol-3-yl)-1H-pyrazol-4-yl)methyl)piperidin-3-yl)methyl)-3-methylbutan-1-amine] | 100 to 500 | < 100
Cc1cc(-c2nn(C)c(Cl)c2CN2CCCCC(NCC3CCOCC3)C2)no1 (centres unmarked) [Example 4, 1-((5-Chloro-1-methyl-3-(5-methylisoxazol-3-yl)-1H-pyrazol-4-yl)methyl)-N-((tetrahydro-2H-pyran-4-yl)methyl)azepan-3-amine] | > 1000 | 500 to 1000
CCn1nc(-c2cc(C(C)C)on2)c(C(=O)NC2CCN(CCC(C)(C)C)CC2)c1Cl [Example 162, 5-Chloro-N-(1-(3,3-dimethylbutyl)piperidin-4-yl)-1-ethyl-3-(5-isopropylisoxazol-3-yl)-1H-pyrazole-4-carboxamide] | < 100 | < 100
CCn1nc(-c2cc(C)on2)c(C(=O)NC2CC3(CCN(CCC(C)(C)C)CC3)C2)c1Cl [Example 127, 5-Chloro-N-(7-(3,3-dimethylbutyl)-7-azaspiro[3.5]nonan-2-yl)-1-ethyl-3-(5-methylisoxazol-3-yl)-1H-pyrazole-4-carboxamide] | < 100 | < 100
Cc1cc(-c2nn(C)c(Cl)c2CC(=O)NC2CCN(CCC(C)(C)C)CC2)no1 [Example 220, 2-(5-Chloro-1-methyl-3-(5-methylisoxazol-3-yl)-1H-pyrazol-4-yl)-N-(1-(3,3-dimethylbutyl)piperidin-4-yl)acetamide] | 100 to 500 | < 100
